# Source: patent US11324217B2, “Preparation method and application of polyketides bearing the trans-fused decalin skeleton” (QINGDAO AGRICULTURAL UNIVERSITY, priority 2019, dated 2022)
# Tests used:
# [1] = system: Echinochloa crusgalli seedlings; test: Herbicidal activity test (PPA method), growth inhibition of radicles of weed seedlings; format: in vivo; conditions: Echinochloa crus-galli, 48 h, radicle length after 2 days in agar, read-out: Growth inhibition rates (%) to radicles of Echinochloa crusgalli seedlings; for inhibition at 2.5 µg/mL: 2.5 μg/mL; for inhibition at 5 µg/mL: 5 μg/mL; for inhibition at 10 µg/mL: 10 μg/mL
# Excerpt: The method of grinded plant tissue powder mixed with agar (PPA method), established by Luo Xiaoyong, et al. (Journal of Qingdao Agricultural University, 2007, 24: 267-270) is used to quickly determine the herbicidal activity of compounds. It has the advantages of high sensitivity, easy operation, good repeatability, and large-throughput screening. It is also easy to observe the growth status of indicator plants. Luo Xiaoyong used this method to quickly determine the herbicidal activity of the leaves of 40 garden plants. Zhang Lijuan (Plant Protection, 2016, 42: 63-66) and Su Fansheng (Applied Chemistry, 2014, 31: 290-295) quickly determined the herbicidal activity of corn stalks and imidazole compounds by the PPA method with Echinochloa crusgalli as the test weed. Zhang Yun (Journal of Microbiology, 2015, 55: 292-298) and Li Shuai (Journal of Agricultural and Food Chemistry, 2014, 62: 8997-9001) studied the inhibitory effect of microbial secondary metabolites on the root growth of Amaranthus retroflexus by using Amaranthus retroflexus as the test weed.
# Weed seeds were first sterilized with 0.2% sodium hypochlorite for 15 min, then washed repeatedly with sterile distilled water, soaked for 4-6 h, and germinated for 12 h in a medical tray with sterile wet filter paper in a dark place.
# The compound to be tested was dissolved in dimethyl sulfoxide (DMSO) to obtain a 4 mg/mL solution, and the 4 mg/mL solution was then diluted with 50% DMSO aqueous solution to different concentrations for later use.
# 1 mL of the sample solution and 99 mL of sterile agar aqueous solution were mixed well, and poured into three 25 mL small beakers to be condensed. Needle-nose tweezers were used to insert 5 small holes on the surface of the condensed agar, the germinated test weed seedlings with 4-5 radicles were clamped separately and inserted gently and vertically into the small holes. Each beaker had five pieces of such agar and the operation was repeated for three times. Then, all beakers were sealed with tin foil and placed in a sterilized small carton, and the sterilized small carton was then placed in an artificial climate box for shading culture for 2 days. The artificial climate box set an automatic cycle of 14 h lighting (25° C.) and 10 h shading (20° C.), and the relative humidity in the box was set at 60%. After 2 days, the lengths of the radicle and hypocotyl were investigated to calculate the weed growth inhibition rate.
# The calculation equations were as follows (Chinese Agricultural Science Bulletin, 2013, 29: 177-182): Growth=length of radicle (hypocotyl) after treatment−length of radicle (hypocotyl) before treatment; Inhibition rate (%)=[(average growth of control−average growth of treatment)/average growth of control]×100%.
# Brine shrimp = test: Lethal activity of Brine shrimp; format: in vivo; conditions: concentration of 500 μg/mL; 24 h incubation at room temperature
# Protocol: Brine shrimp is an aquatic animal that is highly sensitive to toxic substances. It can be used as a model organism to preliminary evaluate the toxic effects of compounds on the environment. Masi, M. et al. used Brine shrimp to preliminary evaluate the toxicity of the herbicidal active compounds Colletochlorins E and F (Journal of Agricultural and Food Chemistry, 2017, 65: 1124-1130).
# 100 mg of Brine shrimp eggs were placed in a 500 mL beaker, 400 mL of artificial seawater was added, the Brine shrimp eggs were slowly inflated with an air pump and hatched at room temperature for 24 h, the egg shells and unhatched eggs were removed, and the Brine shrimps were further incubated for 24 h.
# The compound to be tested was dissolved in DMSO to obtain a 20 mg/mL mother liquor, and the mother liquor was then sequentially diluted twice to obtain 10, 5 and 2.5 mg/mL solutions for later use.
# 195 μL of artificial seawater containing 10-15 Brine shrimps were added into each well of a 96-well cell culture plate to make a test culture plate. […] After incubation at room temperature for 24 h, the number of Brine shrimp deaths was counted under a binocular dissecting microscope. […]
Compound,inhibition at 2.5 µg/mL [1] [%],inhibition at 5 µg/mL [1] [%],inhibition at 10 µg/mL [1] [%],lethal activity of Brine shrimp (Brine shrimp)
C[C@H]1CC[C@H]2[C@@H](C=C[C@@](C)(O)[C@]2(C)C(=O)CCOC(=O)Cc2ccc(O)c(O)c2)C1 [Compound 2],41 ± 0.8,55.4 ± 1.2,79.6,do not exhibit the lethal activity
CC1=C[C@H](O)[C@H]2C[C@@H](C)CC[C@@H]2[C@@]1(C)C(=O)CCO [Compound 1],52.7 ± 1,64.7 ± 0.9,81.5,do not exhibit the lethal activity
"CCOCN(C(=O)CCl)c1c(C)cccc1CC [Acetochlor, reference compound]",54.8 ± 1.3,65.6 ± 1.8,76.1 ± 1.4,–
